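Values below derive from 48-hour exposures of cells grown in 96-well plates, with endpoints linearly interpolated between the two concentrations bracketing the appropriate inhibition level. Here, GI50 denotes the concentration required for 50% inhibition of growth.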 Calls of active or inactive are those of the source. Rule as the data show it: active = GI50 up to about 1.1 µM and inactive = higher.
Tests used:
Test in all cases: inhibition of tumour cell growth, NCI panel, 48 h
MDA-MB-435 = test system: MDA-MB-435
NCI-H522 = test system: NCI-H522
NCI-H23 = test system: NCI-H23
SF-539 = test system: SF-539
M14 = test system: M14
SNB-19 = test system: SNB-19
MDA-N = test system: MDA-N
UACC-257 = test system: UACC-257
ACHN = test system: ACHN
HL-60 = test system: HL-60
HOP-62 = test system: HOP-62
K562 = test system: K562
OVCAR-8 = test system: OVCAR-8
SK-MEL-2 = test system: SK-MEL-2
MCF7 = test system: MCF7
OVCAR-3 = test system: OVCAR-3
SN12C = test system: SN12C
RPMI-8226 = test system: RPMI-8226
OVCAR-5 = test system: OVCAR-5
MOLT-4 = test system: MOLT-4
SF-268 = test system: SF-268
RXF 393 = test system: RXF 393
Hs-578T = test system: Hs-578T
NCI/ADR-RES = test system: NCI/ADR-RES
CAKI-1 = test system: CAKI-1
IGROV-1 = test system: IGROV-1
SR = test system: SR
SK-MEL-5 = test system: SK-MEL-5
COLO 205 = test system: COLO 205
KM12 = test system: KM12
HCT-15 = test system: HCT-15
A498 = test system: A498
LOX IMVI = test system: LOX IMVI
HCT-116 = test system: HCT-116
SF-295 = test system: SF-295
EKVX = test system: EKVX
T47D = test system: T47D
SW-620 = test system: SW-620
HOP-92 = test system: HOP-92
MDA-MB-231 = test system: MDA-MB-231
UO-31 = test system: UO-31
CCRF-CEM = test system: CCRF-CEM
OVCAR-4 = test system: OVCAR-4
UACC-62 = test system: UACC-62
PC-3 = test system: PC-3
TK-10 = test system: TK-10
NCI-H226 = test system: NCI-H226
HT-29 = test system: HT-29
BT-549 = test system: BT-549
A549 = test system: A549
SK-OV-3 = test system: SK-OV-3
DU-145 = test system: DU-145
SK-MEL-28 = test system: SK-MEL-28
NCI-H460 = test system: NCI-H460
HCC 2998 = test system: HCC 2998
Malme-3M = test system: Malme-3M
786-0 = test system: 786-0
U-251 = test system: U-251
SNB-75 = test system: SNB-75

OCC1OC(O[C@H]2CN3[C@H](O)[C@@H](O)[C@H](O)[C@H]3C2O)C(O)C(O)C1O (stereo partly drawn)
GI50 (MDA-MB-435): > 100 µM (inactive)
GI50 (NCI-H522): > 100 µM (inactive)
GI50 (NCI-H23): > 100 µM (inactive)
GI50 (SF-539): > 100 µM (inactive)
GI50 (M14): > 100 µM (inactive)
GI50 (SNB-19): > 100 µM (inactive)
GI50 (MDA-N): > 100 µM (inactive)
GI50 (UACC-257): > 100 µM (inactive)
GI50 (ACHN): > 100 µM (inactive)
GI50 (HL-60): > 100 µM (inactive)
GI50 (HOP-62): > 100 µM (inactive)
GI50 (K562): > 100 µM (inactive)
GI50 (OVCAR-8): > 100 µM (inactive)
GI50 (SK-MEL-2): > 100 µM (inactive)
GI50 (MCF7): > 100 µM (inactive)
GI50 (OVCAR-3): > 100 µM (inactive)
GI50 (SN12C): > 100 µM (inactive)
GI50 (RPMI-8226): > 100 µM (inactive)
GI50 (OVCAR-5): > 100 µM (inactive)
GI50 (MOLT-4): > 100 µM (inactive)
GI50 (SF-268): > 100 µM (inactive)
GI50 (RXF 393): > 100 µM (inactive)
GI50 (Hs-578T): > 100 µM (inactive)
GI50 (NCI/ADR-RES): > 100 µM (inactive)
GI50 (CAKI-1): > 100 µM (inactive)
GI50 (IGROV-1): > 100 µM (inactive)
GI50 (SR): > 100 µM (inactive)
GI50 (SK-MEL-5): > 100 µM (inactive)
GI50 (COLO 205): > 100 µM (inactive)
GI50 (KM12): > 100 µM (inactive)
GI50 (HCT-15): > 100 µM
GI50 (A498): > 100 µM (inactive)
GI50 (LOX IMVI): > 100 µM (inactive)
GI50 (HCT-116): > 100 µM (inactive)
GI50 (SF-295): > 100 µM (inactive)
GI50 (EKVX): > 100 µM (inactive)
GI50 (T47D): > 100 µM (inactive)
GI50 (SW-620): > 100 µM (inactive)
GI50 (HOP-92): > 100 µM (inactive)
GI50 (MDA-MB-231): > 100 µM (inactive)
GI50 (UO-31): > 100 µM (inactive)
GI50 (CCRF-CEM): > 100 µM (inactive)
GI50 (OVCAR-4): > 100 µM (inactive)
GI50 (UACC-62): > 100 µM (inactive)
GI50 (PC-3): > 100 µM (inactive)
GI50 (TK-10): > 100 µM (inactive)
GI50 (NCI-H226): > 100 µM (inactive)
GI50 (HT-29): > 100 µM (inactive)
GI50 (BT-549): > 100 µM (inactive)
GI50 (A549): > 100 µM (inactive)
GI50 (SK-OV-3): > 100 µM (inactive)
GI50 (DU-145): > 100 µM (inactive)
GI50 (SK-MEL-28): > 100 µM (inactive)
GI50 (NCI-H460): > 100 µM (inactive)
GI50 (HCC 2998): > 100 µM (inactive)
GI50 (Malme-3M): > 100 µM (inactive)
GI50 (786-0): > 100 µM (inactive)
GI50 (U-251): > 100 µM (inactive)

O=C(NC12CC3CC(CC(C3)C1)C2)n1cnc2cncnc21
GI50 (MDA-MB-435): 31.3 µM (inactive)
GI50 (NCI-H522): 16.1 µM (inactive)
GI50 (NCI-H23): 37.8 µM (inactive)
GI50 (SF-539): 25.1 µM (inactive)
GI50 (M14): 54.7 µM (inactive)
GI50 (SNB-19): 93.3 µM (inactive)
GI50 (MDA-N): 33.5 µM (inactive)
GI50 (UACC-257): 56.5 µM (inactive)
GI50 (ACHN): 34.8 µM (inactive)
GI50 (HL-60): 28.7 µM (inactive)
GI50 (HOP-62): 18.2 µM (inactive)
GI50 (K562): 35.1 µM (inactive)
GI50 (OVCAR-8): 30.1 µM (inactive)
GI50 (SK-MEL-2): 18.2 µM (inactive)
GI50 (MCF7): 27.5 µM (inactive)
GI50 (OVCAR-3): 18.2 µM (inactive)
GI50 (SN12C): 36 µM (inactive)
GI50 (RPMI-8226): 22.5 µM (inactive)
GI50 (OVCAR-5): 34.3 µM (inactive)
GI50 (MOLT-4): 33.3 µM (inactive)
GI50 (SF-268): 53.5 µM (inactive)
GI50 (RXF 393): 26.5 µM (inactive)
GI50 (Hs-578T): 54.6 µM (inactive)
GI50 (NCI/ADR-RES): 28.6 µM (inactive)
GI50 (CAKI-1): 28.4 µM (inactive)
GI50 (IGROV-1): 26.6 µM (inactive)
GI50 (SR): 24.4 µM (inactive)
GI50 (SK-MEL-5): 16.1 µM (inactive)
GI50 (COLO 205): 20.6 µM (inactive)
GI50 (KM12): 30.8 µM (inactive)
GI50 (HCT-15): 27.7 µM
GI50 (A498): 65.9 µM (inactive)
GI50 (LOX IMVI): 25.8 µM (inactive)
GI50 (HCT-116): 32.7 µM (inactive)
GI50 (SNB-75): 44.5 µM (inactive)
GI50 (SF-295): 21.6 µM (inactive)
GI50 (EKVX): 37.6 µM (inactive)
GI50 (T47D): 20.6 µM (inactive)
GI50 (SW-620): 39.8 µM (inactive)
GI50 (HOP-92): 28.2 µM (inactive)
GI50 (MDA-MB-231): 70 µM (inactive)
GI50 (UO-31): 91.2 µM (inactive)
GI50 (CCRF-CEM): 26.5 µM (inactive)
GI50 (UACC-62): 39.2 µM (inactive)
GI50 (PC-3): 25.8 µM (inactive)
GI50 (TK-10): 30.2 µM (inactive)
GI50 (HT-29): 28.4 µM (inactive)
GI50 (BT-549): 46.8 µM (inactive)
GI50 (A549): 47.5 µM (inactive)
GI50 (SK-OV-3): 17.8 µM (inactive)
GI50 (DU-145): 25.6 µM (inactive)
GI50 (SK-MEL-28): > 100 µM (inactive)
GI50 (NCI-H460): 32.3 µM (inactive)
GI50 (HCC 2998): 35.6 µM (inactive)
GI50 (Malme-3M): 26 µM (inactive)
GI50 (786-0): 50.1 µM (inactive)
GI50 (U-251): 35.3 µM (inactive)

COc1cc2oc3ccccc3c(=O)c2cc1CSc1ccccc1N
GI50 (MDA-MB-435): 2.47 µM (inactive)
GI50 (NCI-H522): 8.89 µM (inactive)
GI50 (NCI-H23): 29.9 µM (inactive)
GI50 (SF-539): 45.3 µM (inactive)
GI50 (M14): 23.2 µM (inactive)
GI50 (SNB-19): 56.5 µM (inactive)
GI50 (MDA-N): 3.27 µM (inactive)
GI50 (UACC-257): 47.5 µM (inactive)
GI50 (ACHN): 19.5 µM (inactive)
GI50 (HL-60): 3.83 µM (inactive)
GI50 (HOP-62): 22.8 µM (inactive)
GI50 (K562): 3.91 µM (inactive)
GI50 (OVCAR-8): 33.5 µM (inactive)
GI50 (SK-MEL-2): 6.95 µM (inactive)
GI50 (MCF7): 13.6 µM (inactive)
GI50 (OVCAR-3): 18.5 µM (inactive)
GI50 (SN12C): 46.8 µM (inactive)
GI50 (RPMI-8226): 9.46 µM (inactive)
GI50 (OVCAR-5): > 81.8 µM (inactive)
GI50 (MOLT-4): 4.83 µM (inactive)
GI50 (SF-268): 41.1 µM (inactive)
GI50 (RXF 393): 11 µM (inactive)
GI50 (Hs-578T): 36 µM (inactive)
GI50 (NCI/ADR-RES): 6.5 µM (inactive)
GI50 (CAKI-1): 35.9 µM (inactive)
GI50 (IGROV-1): 12 µM (inactive)
GI50 (SR): 5.2 µM (inactive)
GI50 (SK-MEL-5): 13.5 µM (inactive)
GI50 (COLO 205): 15.8 µM (inactive)
GI50 (KM12): 4.62 µM (inactive)
GI50 (HCT-15): 6.95 µM
GI50 (A498): 17.3 µM (inactive)
GI50 (LOX IMVI): 29.7 µM (inactive)
GI50 (HCT-116): 19.5 µM (inactive)
GI50 (SNB-75): 30.8 µM (inactive)
GI50 (SF-295): 14.2 µM (inactive)
GI50 (EKVX): 24.1 µM (inactive)
GI50 (T47D): 7.85 µM (inactive)
GI50 (SW-620): 6.81 µM (inactive)
GI50 (HOP-92): 35.2 µM (inactive)
GI50 (MDA-MB-231): 27.7 µM (inactive)
GI50 (CCRF-CEM): 4.94 µM (inactive)
GI50 (OVCAR-4): 13.6 µM (inactive)
GI50 (UACC-62): 9.71 µM (inactive)
GI50 (PC-3): 14.5 µM (inactive)
GI50 (TK-10): 35.5 µM (inactive)
GI50 (NCI-H226): 73.6 µM (inactive)
GI50 (HT-29): 18.7 µM (inactive)
GI50 (BT-549): 29.3 µM (inactive)
GI50 (A549): 23.4 µM (inactive)
GI50 (SK-OV-3): 28 µM (inactive)
GI50 (DU-145): 21.1 µM (inactive)
GI50 (SK-MEL-28): 18.7 µM (inactive)
GI50 (NCI-H460): 15.1 µM (inactive)
GI50 (HCC 2998): 5.24 µM (inactive)
GI50 (Malme-3M): 18.6 µM (inactive)
GI50 (786-0): 35.9 µM (inactive)
GI50 (U-251): 22.9 µM (inactive)
